Source: patent publication US8039510B2, “Methods of making and using theaflavin, theaflavin-3-gallate, theaflavin-3′-gallate and theaflavin 3,3′-digallate and mixtures thereof” (Nashai Biotech, LLC, priority 2001, dated 2011)

Tested on: Male Sprague-Dawley rats
Assay: Lipid profile of rats fed cholesterol diet plus theaflavins or catechin for eight weeks
Format: in vivo, rat
Conditions: for HDL / LDL / TC / TG: rat plasma, eight weeks; for reducing plasma levels of TC, LDL-C and TG, compared with catechin: rats
Method: Male Sprague-Dawley rats weighing 100 g to 130 g were divided into nine groups of ten rats. The animals were individually housed in stainless-steel cages with screen bottoms in a room maintained at between 22° C. and 24° C. They were fed stationary feedstuff and water as follows as described in Table 1. In addition the rats in Group TF1-1, TF1-2 or TF1-3 were fed pure theaflavin in a dosage of 1 mg/kg/day, 2 mg/kg/day and 4 mg/kg/day, respectively. The animals in group TF2A-2, TF2B-2 or RF3-2 were fed pure theaflavin-3-gallate, theaflavin-3′-gallate and theaflavin-3,3′-digallate, respectively in a dosage of 2 mg/kg/day. The animals in group CA-1 and CA-2 were fed catechins in a dosage of 1 mg/kg/day or 2 mg/kg/day, respectively.
The Sprague Dawley rats were fed the above diets for eight weeks before sampling. The rats were not fed for 12 hours prior to sampling. The rats were given either theaflavin, theaflavin-3-gallate, theaflavin-3′-gallate, theaflavin-3,3′-digallate or catechin one hour in advance of collecting the blood sample.

[1] = group TF1-3: 4 mg/kg/day per text (Table 1 prints 3)

Molecule	HDL (1 mg/kg/day)	LDL (1 mg/kg/day)	TC (1 mg/kg/day)	TG (1 mg/kg/day, mean ± spread)	HDL (2 mg/kg/day)	LDL (2 mg/kg/day)	TC (2 mg/kg/day)	TG (2 mg/kg/day)	HDL [1]	LDL [1]	TC [1]	TG [1]	reducing plasma levels of TC, LDL-C and TG, compared with catechin
O=c1c(O)cc([C@H]2Oc3cc(O)cc(O)c3C[C@H]2O)cc2c([C@H]3Oc4cc(O)cc(O)c4C[C@H]3O)cc(O)c(O)c12 [theaflavin]	48.8 ± 1.7^3	45.6 ± 3.1^1	116.3 ± 8.2^1	108.1 ± 13.8^2	49.2 ± 2.1^3	34.6 ± 3.7^1	101.3 ± 7.9^1	97.4 ± 11.6^1	49.4 ± 1.9^3	25.3 ± 2.2^1	90.8 ± 7.1^1	87.7 ± 12.2^1	more effective
theaflavin-3′-gallate	–	–	–	–	49.3 ± 2.7^3	32.4 ± 3.3^1	97.8 ± 8.5^1	96.2 ± 10.2^1	–	–	–	–	more effective
O=C(O[C@@H]1Cc2c(O)cc(O)cc2O[C@@H]1c1cc(=O)c(O)c2c(O)c(O)cc([C@H]3Oc4cc(O)cc(O)c4C[C@H]3O)c2c1)c1cc(O)c(O)c(O)c1 [theaflavin-3-gallate]	–	–	–	–	49.2 ± 1.9^3	32.2 ± 3.7^1	97.3 ± 8.4^1	95.7 ± 10.5^1	–	–	–	–	more effective
theaflavin-3,3′-digallate	–	–	–	–	49.3 ± 1.9^3	31.2 ± 4.1^1	95.5 ± 7.4^1	95.36 ± 9.2^1	–	–	–	–	more effective
